Experimental data reported in ChEMBL document CHEMBL4308841, “Synthesis, in vitro antiproliferative activity, and kinase inhibitory effects of pyrazole-containing diarylureas and diarylamides” (Eur J Med Chem, 2018).

Assays:
RPMI-8226 = experiment: Growth inhibition of human RPMI8226 cells assessed as cell growth at 100 uM incubated for 48 hrs by sulforhodamine B assay relative to control; format: functional; settings: RPMI-8226, 48 h, read-out: Activity
MOLT-4 = experiment: Growth inhibition of human MOLT4 cells assessed as cell growth at 1 uM incubated for 48 hrs by sulforhodamine B assay relative to control; format: functional; settings: MOLT-4, 48 h, read-out: Activity
COLO 205 [1] = experiment: Growth inhibition of human COLO205 cells incubated for 48 hrs by sulforhodamine B assay; format: functional, cell-based; settings: COLO 205, 48 h
ACHN = experiment: Growth inhibition of human ACHN cells assessed as cell growth at 1 uM incubated for 48 hrs by sulforhodamine B assay relative to control; format: functional; settings: read-out: Activity
SK-MEL-2 = experiment: Growth inhibition of human SK-MEL-2 cells assessed as cell growth at 0.1 uM incubated for 48 hrs by sulforhodamine B assay relative to control; format: functional; settings: SK-MEL-2, 48 h, read-out: Activity
Malme-3M [2] = experiment: Growth inhibition of human MALME-3M cells assessed as cell growth at 0.01 uM incubated for 48 hrs by sulforhodamine B assay relative to control; format: functional; settings: read-out: Activity
OVCAR-5 [3] = experiment: Growth inhibition of human OVCAR5 cells assessed as cell growth at 100 uM incubated for 48 hrs by sulforhodamine B assay relative to control; format: functional; settings: OVCAR-5, 48 h, read-out: Activity
MDA-MB-231 [4] = experiment: Growth inhibition of human MDA-MB-231 cells assessed as cell growth at 0.01 uM incubated for 48 hrs by sulforhodamine B assay relative to control; format: functional; settings: MDA-MB-231, 48 h, read-out: Activity
SR = experiment: Growth inhibition of human SR cells assessed as cell growth at 100 uM incubated for 48 hrs by sulforhodamine B assay relative to control; format: functional; settings: read-out: Activity
OVCAR-3 = experiment: Growth inhibition of human OVCAR3 cells assessed as cell growth at 1 uM incubated for 48 hrs by sulforhodamine B assay relative to control; format: functional; settings: OVCAR-3, 48 h, read-out: Activity
A498 = experiment: Growth inhibition of human A498 cells assessed as cell growth at 0.01 uM incubated for 48 hrs by sulforhodamine B assay relative to control; format: functional; settings: A498, 48 h, read-out: Activity
NCI-H226 = experiment: Growth inhibition of human NCI-H226 cells assessed as cell growth at 1 uM incubated for 48 hrs by sulforhodamine B assay relative to control; format: functional; settings: NCI-H226, 48 h, read-out: Activity
MDA-MB-231 [5] = experiment: Growth inhibition of human MDA-MB-231 cells assessed as cell growth at 0.1 uM incubated for 48 hrs by sulforhodamine B assay relative to control; format: functional; settings: MDA-MB-231, 48 h, read-out: Activity
SF-295 [6] = experiment: Growth inhibition of human SF295 cells assessed as cell growth at 100 uM incubated for 48 hrs by sulforhodamine B assay relative to control; format: functional; settings: SF-295, 48 h, read-out: Activity
T47D = experiment: Growth inhibition of human T47D cells assessed as cell growth at 0.1 uM incubated for 48 hrs by sulforhodamine B assay relative to control; format: functional; settings: read-out: Activity
NCI-H460 = experiment: Growth inhibition of human NCI-H460 cells assessed as cell growth at 1 uM incubated for 48 hrs by sulforhodamine B assay relative to control; format: functional; settings: NCI-H460, 48 h, read-out: Activity
SF-295 [7] = experiment: Growth inhibition of human SF295 cells incubated for 48 hrs by sulforhodamine B assay; format: functional, cell-based; settings: SF-295, 48 h
OVCAR-8 = experiment: Growth inhibition of human OVCAR8 cells assessed as cell growth at 100 uM incubated for 48 hrs by sulforhodamine B assay relative to control; format: functional; settings: OVCAR-8, 48 h, read-out: Activity
SN12C = experiment: Growth inhibition of human SN12C cells incubated for 48 hrs by sulforhodamine B assay; format: functional, cell-based
OVCAR-5 [8] = experiment: Growth inhibition of human OVCAR5 cells incubated for 48 hrs by sulforhodamine B assay; format: functional, cell-based; settings: OVCAR-5, 48 h
IGROV-1 = experiment: Growth inhibition of human IGROV1 cells incubated for 48 hrs by sulforhodamine B assay; format: functional, cell-based; settings: IGROV-1, 48 h
NCI/ADR-RES = experiment: Growth inhibition of human NCI/ADR-RES cells assessed as cell growth at 1 uM incubated for 48 hrs by sulforhodamine B assay relative to control; format: functional; settings: read-out: Activity
SNB-75 = experiment: Growth inhibition of human SNB75 cells incubated for 48 hrs by sulforhodamine B assay; format: functional, cell-based; settings: SNB-75, 48 h
Malme-3M [9] = experiment: Growth inhibition of human MALME-3M cells assessed as cell growth at 0.1 uM incubated for 48 hrs by sulforhodamine B assay relative to control; format: functional; settings: read-out: Activity
COLO 205 [10] = experiment: Growth inhibition of human COLO205 cells assessed as cell growth at 100 uM incubated for 48 hrs by sulforhodamine B assay relative to control; format: functional; settings: COLO 205, 48 h, read-out: Activity
UACC-257 [11] = experiment: Growth inhibition of human UACC257 cells assessed as cell growth at 0.01 uM incubated for 48 hrs by sulforhodamine B assay relative to control; format: functional; settings: UACC-257, 48 h, read-out: Activity
UACC-257 [12] = experiment: Growth inhibition of human UACC257 cells assessed as cell growth at 0.1 uM incubated for 48 hrs by sulforhodamine B assay relative to control; format: functional; settings: UACC-257, 48 h, read-out: Activity
HCT-15 = experiment: Growth inhibition of human HCT15 cells assessed as cell growth at 100 uM incubated for 48 hrs by sulforhodamine B assay relative to control; format: functional; settings: HCT-15, 48 h, read-out: Activity
CAKI-1 = experiment: Growth inhibition of human Caki1 cells assessed as cell growth at 100 uM incubated for 48 hrs by sulforhodamine B assay relative to control; format: functional; settings: CAKI-1, 48 h, read-out: Activity
NCI-H522 = experiment: Growth inhibition of human NCI-H522 cells assessed as cell growth at 1 uM incubated for 48 hrs by sulforhodamine B assay relative to control; format: functional; settings: NCI-H522, 48 h, read-out: Activity
[13] = read-out: LC50 (the source's name)
[14] = read-out: pLC50 (the source's name) (converted)

`COc1cc(Cl)cc(-c2nn(-c3cccc(NC(=O)Nc4cccc(C(F)(F)F)c4)c3)cc2-c2ccncc2)c1` gave a growth at 100 µM (RPMI-8226) of -43%, a growth at 1 µM (MOLT-4) of 55% and a GI50 (COLO 205 [1]; read-out: GI50) of 1.53 µM. It also gave a CC50 (COLO 205 [1]; [13]) of 65.5 µM, a TGI (COLO 205 [1]; read-out: TGI) of 31.7 µM and a GI50 (COLO 205 [1]; read-out: pGI50 (converted)) of 1.51 µM. The CC50 (COLO 205 [1]; [14]) was 6.61 µM, the TGI (COLO 205 [1]; read-out: pTGI (converted)) was 3.16 µM and the growth at 1 µM (ACHN) was 65%. For the same compound, the growth at 0.1 µM (SK-MEL-2) was 55%, the growth at 0.01 µM (Malme-3M [2]) was 95% and the growth at 100 µM (OVCAR-5 [3]) was -13%. The growth at 0.01 µM (MDA-MB-231 [4]) was 102%, the growth at 100 µM (SR) was -30% and the growth at 1 µM (OVCAR-3) was 38%. For the same compound, the growth at 0.01 µM (A498) was 95%, the growth at 1 µM (NCI-H226) was 77% and the growth at 0.1 µM (MDA-MB-231 [5]) was 103%. For the same compound, the growth at 100 µM (SF-295 [6]) was -53%, the growth at 0.1 µM (T47D) was 94% and the growth at 1 µM (NCI-H460) was 45%. It also gave a GI50 (SF-295 [7]; read-out: GI50) of 0.753 µM, a CC50 (SF-295 [7]; [13]) of 75.9 µM and a TGI (SF-295 [7]; read-out: TGI) of 45.2 µM. The GI50 (SF-295 [7]; read-out: pGI50 (converted)) was 0.776 µM, the CC50 (SF-295 [7]; [14]) was 77.6 µM and the TGI (SF-295 [7]; read-out: pTGI (converted)) was 4.57 µM. For the same compound, the growth at 100 µM (OVCAR-8) was -43%, the GI50 (SN12C; read-out: GI50) was 2.06 µM and the LC50 (SN12C; read-out: LC50) was over 100 µM. For the same compound, the TGI (SN12C; read-out: TGI) was 15.5 µM, the GI50 (SN12C; read-out: pGI50 (converted)) was 2.04 µM and the LC50 (SN12C; read-out: pLC50 (converted)) was over 100 µM. The TGI (SN12C; read-out: pTGI (converted)) was 18.6 µM, the GI50 (OVCAR-5 [8]; read-out: GI50) was 3.06 µM and the CC50 (OVCAR-5 [8]; [13]) was over 100 µM. The TGI (OVCAR-5 [8]; read-out: TGI) was 30.1 µM, the GI50 (OVCAR-5 [8]; read-out: pGI50 (converted)) was 3.09 µM and the CC50 (OVCAR-5 [8]; [14]) was over 100 µM. For the same compound, the TGI (OVCAR-5 [8]; read-out: pTGI (converted)) was 30.2 µM, the GI50 (IGROV-1; read-out: GI50) was 2.56 µM and the CC50 (IGROV-1; [13]) was over 100 µM. It also gave a TGI (IGROV-1; read-out: TGI) of 22.7 µM, a GI50 (IGROV-1; read-out: pGI50 (converted)) of 2.88 µM and a CC50 (IGROV-1; [14]) of over 100 µM. It also gave a TGI (IGROV-1; read-out: pTGI (converted)) of 22.9 µM, a growth at 1 µM (NCI/ADR-RES) of 65% and a GI50 (SNB-75; read-out: GI50) of 1.76 µM. It also gave a CC50 (SNB-75; [13]) of over 100 µM, a TGI (SNB-75; read-out: TGI) of 13.9 µM and a GI50 (SNB-75; read-out: pGI50 (converted)) of 1.78 µM. It also gave a CC50 (SNB-75; [14]) of over 100 µM, a TGI (SNB-75; read-out: pTGI (converted)) of 13.8 µM and a growth at 0.1 µM (Malme-3M [9]) of 50%. The growth at 100 µM (COLO 205 [10]) was -95%, the growth at 0.01 µM (UACC-257 [11]) was 90% and the growth at 0.1 µM (UACC-257 [12]) was 94%. The growth at 100 µM (HCT-15) was -72%, the growth at 100 µM (CAKI-1) was -20% and the growth at 1 µM (NCI-H522) was 33%.
